Reference: patent US7977352B2, “Triazolopyridine compounds useful for the treatment of degenerative and inflammatory diseases” (Galapagos NV, priority 2006, dated 2011)
pIC50: −log10 of the molar value.

Columns and labels:
TAK1-TAB1 fusion protein = molecular target: T1, TAK1-TAB1 fusion protein (Homo sapiens, UniProt O43318); assay: In vitro TAK1 kinase assay; assay type: biochemical; settings: casein substrate, [33P]-γ-ATP, 90 minutes at 30° C., semi-quantitative score, read-out: POTENCY TAK1 (MAP3K7)
T1 construct: purchased Upstate 14-600
T1 sequence (O43318 with tags, fused parts or gaps limits assumed): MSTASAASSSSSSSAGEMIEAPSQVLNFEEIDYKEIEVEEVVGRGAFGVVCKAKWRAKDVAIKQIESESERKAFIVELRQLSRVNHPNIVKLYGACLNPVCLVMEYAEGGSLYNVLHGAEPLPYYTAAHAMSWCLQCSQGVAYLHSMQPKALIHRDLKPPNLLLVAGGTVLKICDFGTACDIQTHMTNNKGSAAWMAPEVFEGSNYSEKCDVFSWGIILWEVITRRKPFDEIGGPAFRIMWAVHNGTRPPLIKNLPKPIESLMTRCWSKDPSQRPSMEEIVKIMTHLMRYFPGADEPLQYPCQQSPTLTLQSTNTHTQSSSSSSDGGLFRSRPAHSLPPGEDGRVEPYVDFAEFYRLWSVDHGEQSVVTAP
Description: For assessing TAK1 inhibition, active TAK1-TAB1 fusion protein was used from Upstate (Cat. No, 14-600). Kinase reactions are set up in 96-well polypropylene plates in 25 μL containing 0.5 mU TAK1-TAB1 fusion protein, 5mM ATP, 0.01 μCi/μL [^33P]-γ-ATP, 0.1 mg/mL casein substrate in 1× reaction buffer containing 10 mM MOPS pH 7.0, 1 mM EDTA.
Starting from the compound master stocks (all at 10 mM concentration in 100% DMSO) a 3-fold serial dilution is made in 96-well plates in 100% DMSO. Plates are further diluted […] in H2O containing 3.5% DMSO, to obtain an intermediate work stock with compounds at 5× the final assay concentration in 5% DMSO.
5 μL of the intermediate stock is transferred into V-bottom 96 well polypropylene plates and 11 μL of Enzyme mix is added. Enzyme mix is made by combining 5 μL 5× reaction buffer ([…] pH 7.0, 1 mM EDTA), 5 μL casein (Sigma) diluted in H20 to 0.5 mg/mL and 1 μL of TAK1-TAB1 fusion protein that was prediluted to 0.5 mU/μL in 1× enzyme dilution buffer (20 mM MOPS pH 7.0, 0.1 mM EDTA, 0.01% Brij-35, 5% glycerol, 1 mM DTT, 1 mg/ml BSA).
The reactions are started by the addition of 9 μL of mixture containing ATP (20.83 uM) and [^33P]-γ-ATP (0.028 μCi/μL).
The assay is stopped 90 minutes after incubation at 30° C. by the addition of 25 μL phosphoric acid (150 mM). The label incorporated into the casein substrate is separated from labeled unincorporated ATP by filtration onto 96-well filter plates using a harvester device. After 6 washes with 75 mM phosphoric acid, the bottom of the filter plates are sealed, and incorporated label is quantified after addition of 40 μL scintillation fluid using TopCount.

[1] = system: MMP1 expression by activated synovial fibroblasts (RASFs); assay: MMP assay: MMP1 expression by RASFs triggered with TNF-α (MMP1 ELISA); assay type: cell-based; settings: Fibroblast, 48 h, TNF-α trigger 10 ng/mL, semi-quantitative score, read-out: REDUCTION MMP1/TNFa
Description: A 384-well format ELISA for measurement of MMP1 is developed. Various primary antibodies are tested, as well as various ELISA protocols. The following protocol is developed and validated to measure MMP1 levels in SF supernatant in 384 well plates: white Lumitrac 600 384 well plates (Greiner) are coated with 2 μg/mL anti-MMP1 antibody MAB1346 (Chemicon). The antibody is diluted in buffer 40 (1.21 g Tris base (Sigma), 0.58 g NaCl (Calbiochem) and 5 mL 10% NaN3 (Sigma) in 1 L milliQ water and adjusted to pH 8.5). After overnight incubation at 4° C., plates are washed with PBS (80 g NaCl, 2 g KCl (Sigma), 11.5 g Na2HPO4.7H2O and 2 g KH2PO4 in 10 L milliQ; pH 7.4) and blocked with 100 μL/well Casein buffer (2% Casein (VWR International) in PBS). Next day, casein buffer is removed from ELISA plates and replaced by 50 μL/well EC buffer (4 g casein, 2.13 g Na2HPO4 (Sigma), 2 g bovine albumin (Sigma), 0.69 g NaH2PO4.H2O (Sigma), 0.5 g CHAPS (Roche), 23.3 g NaCl, 4 mL 0.5 M EDTA pH 8 (Invitrogen), 5 mL 10% NaN3 in 1 L milliQ and adjusted to pH 7.0). 0.25 mM DTT (Sigma) is added to the thawed sample plates. After removal of the EC buffer, 20 μL of sample is transferred to the ELISA plates. After overnight incubation at 4° C. plates are washed twice with PBS and once with PBST (PBS with 0.05% Tween-20 (Sigma)) and incubated with 35 μL/well biotinylated anti-MMP1 antibody solution (R&D). This secondary antibody is diluted in buffer C (0.82 g NaH2PO4.H2O, 4.82 g Na2HPO4, 46.6 g NaCl, 20 g bovine albumin and 4 mL 0.5M EDTA pH 8 in 2 L milliQ and adjusted to pH 7.0) at a concentration of 5 μg/mL. After 2 h of incubation at RT, plates are washed as described above and incubated with 50 μL/well streptavidin-HRP conjugate (Biosource). Streptavidin-HRP conjugate is diluted in buffer C at a concentration of 0.25 μg/mL. After 45 min, plates are washed as described above and incubated for 5 min with 50 μL/well BM Chem ELISA Substrate (Roche). Readout is performed on the Luminoscan Ascent Luminometer (Labsystems) with an integration time of 200 msec or with an Envision reader (Perkin Elmer).
SFs were acquired at passage 1 from a commercial supplier (Cell applications, Inc.). SFs are cultured in DMEM supplemented with 10% heat-inactivated FBS, 1× penicillin/streptomycin (Invitrogen) at 37° C., 10% CO2 until passage 6. Aliquots of the cells are frozen and cryopreserved in liquid nitrogen. Starting from a cryopreserved aliquot, cells are further expanded by sub-culturing cells at 1/3 ratio every week. Cells between passage 10 and 12 are routinely used in compound testing according to following protocol.
Starting from the compound master stocks (all at 10 mM concentration in 100% DMSO) a 3-fold serial dilution is made in 96-well plates in 100% DMSO. Then, plates are further diluted 45-fold in M199 medium supplemented with 1% heat-inactivated FBS to obtain a intermediate work stock.
At day 1, RASFs are seeded in 96 well plates (flat bottom, tissue culture treated, Greiner) at a density of 3000 cells/well in complete synovial growth medium (Cell Applications). Day 5, the medium is completely removed from the cells, and replaced by 81 μL of M199 medium supplemented with 1% heat-inactivated FBS followed by addition of 10 μL compound out of the intermediate work stock. After an incubation period of 90 minutes, which allows the compounds to equilibrate and enter the cells, cells are stimulated with either TNF-α or ‘complex trigger’. TNF-α trigger is added in a volume of […] to obtain final concentration of 10 ng/mL. For that, TNF-α stock (PeproTech) at 10 μg/mL was diluted to 100 ng/mL TNF-a in M199 medium supplemented with 1% FBS. ‘Complex trigger’ mix is added in a volume of 20 μL to obtain a final concentration of 12.5%. For that, ‘complex trigger’ mix, is diluted to 80% with M199 medium supplemented with 1% FBS. […]

Structure (SMILES) | pIC50 (TAK1-TAB1 fusion protein) | pIC50 [1]
COc1cc(-c2ccc(Nc3ccc(N4CCN(C5CCCCC5)CC4)cc3)c3ncnn23)ccn1 [Example 32, N-[4-(4-cyclohexylpiperazin-1-yl)phenyl]-5-(2-methoxypyridin-4-yl)[1,2,4]triazolo[1,5-a]pyridin-8-amine] | < 5.00 | 5.00 to 5.30
CC(C)N1CCN(c2ccc(Nc3ccc(-c4cccc(C(N)=O)c4)n4ncnc34)cc2)CC1 [Example 44, 3-(8-{[4-(4-isopropylpiperazin-1-yl)phenyl]amino}[1,2,4]triazolo[1,5-a]pyridin-5-yl)benzamide] | < 5.00 | 5.30 to 6.00
O=c1cc(-c2ccc(Nc3ccc(N4CCN(C5CCCCC5)CC4)cc3)c3ncnn23)cc[nH]1 [Example 25, 4-(8-{[4-(4-cyclohexylpiperazin-1-yl)phenyl]amino}[1,2,4]triazolo[1,5-a]pyridin-5-yl)pyridin-2(1H)-one] | > 6.30 | 5.30 to 6.00
CCC(CC)N1CCN(c2ccc(Nc3ccc(-c4ccc(C(N)=O)cc4)n4ncnc34)cc2)CC1 [Example 14, 4-[8-({4-[4-(1-ethylpropyl)piperazin-1-yl]phenyl}amino)[1,2,4]triazolo[1,5-a]pyridin-5-yl]benzamide] | > 6.30 | < 5.00
CCCN1CCN(c2ccc(Nc3ccc(-c4ccnc(OC)c4)n4ncnc34)cc2)CC1 [Example 27, 5-(2-methoxypyridin-4-yl)-N-[4-(4-propylpiperazin-1-yl)phenyl][1,2,4]triazolo[1,5-a]pyridin-8-amine] | < 5.00 | 5.30 to 6.00
CCN1CCN(c2ccc(Nc3ccc(-c4cc[nH]c(=O)c4)n4ncnc34)cc2)CC1 [Example 19, 4-(8-{[4-(4-ethylpiperazin-1-yl)phenyl]amino}[1,2,4]triazolo[1,5-a]pyridin-5-yl)pyridin-2(1H)-one] | > 6.30 | 5.30 to 6.00
COc1cc(-c2ccc(Nc3ccc(N4CCN(CCC(C)C)CC4)cc3)c3ncnn23)ccn1 [Example 29, 5-(2-methoxypyridin-4-yl)-N-{4-[4-(3-methylbutyl)piperazin-1-yl]phenyl}[1,2,4]triazolo[1,5-a]pyridin-8-amine] | < 5.00 | 5.30 to 6.00
CC(C)N1CCN(c2ccc(Nc3ccc(-c4cccc5[nH]ccc45)n4ncnc34)cc2)CC1 [Example 49, 5-(1H-indol-4-yl)-N-[4-(4-isopropylpiperazin-1-yl)phenyl][1,2,4]triazolo[1,5-a]pyridin-8-amine] | 5.30 to 6.00 | < 5.00
COc1ncc(-c2ccc(Nc3ccc(N4CCN(C(C)C)CC4)cc3)c3ncnn23)c(OC)n1 [Example 56, 5-(2,4-dimethoxypyrimidin-5-yl)-N-[4-(4-isopropylpiperazin-1-yl)phenyl][1,2,4]triazolo[1,5-a]pyridin-8-amine] | < 5.00 | < 5.00

Now from value to compound, other results behind:

pIC50 (TAK1-TAB1 fusion protein) | Structure (SMILES) | pIC50 [1]
> 6.30 | CCN1CCN(c2ccc(Nc3ccc(-c4ccc(C(N)=O)cc4)n4ncnc34)cc2)CC1 [Example 12, 4-(8-{[4-(4-ethylpiperazin-1-yl)phenyl]amino}[1,2,4]triazolo[1,5-a]pyridin-5-yl)benzamide] | > 6.30
< 5.00 | c1nc2c(Nc3ccc(N4CCOCC4)cc3)ccc(-c3ccc4[nH]ccc4c3)n2n1 [Example 50, 5-(1H-indol-5-yl)-N-(4-morpholin-4-ylphenyl)[1,2,4]triazolo[1,5-a]pyridin-8-amine] | 5.30 to 6.00
< 5.00 | c1nc2c(Nc3ccc(N4CCOCC4)cc3)ccc(-c3ccc4cc[nH]c4c3)n2n1 [Example 52, 5-(1H-indol-6-yl)-N-(4-morpholin-4-ylphenyl)[1,2,4]triazolo[1,5-a]pyridin-8-amine] | < 5.00
> 6.30 | CC(C)CCN1CCN(c2ccc(Nc3ccc(-c4cc[nH]c(=O)c4)n4ncnc34)cc2)CC1 [Example 22, 4-[8-({4-[4-(3-methylbutyl)piperazin-1-yl]phenyl}amino)[1,2,4]triazolo[1,5-a]pyridin-5-yl]pyridin-2(1H)-one] | 5.30 to 6.00
< 5.00 | CC(C)N1CCN(c2ccc(Nc3ccc(-c4c[nH]c(=O)[nH]c4=O)n4ncnc34)cc2)CC1 [Example 55, 5-(8-{[4-(4-isopropylpiperazin-1-yl)phenyl]amino}[1,2,4]triazolo[1,5-a]pyridin-5-yl)pyrimidine-2,4(1H,3H)-dione] | < 5.00
< 5.00 | CC(C)N1CCN(c2ccc(Nc3ccc(-c4ccc(F)c(C(N)=O)c4)n4ncnc34)cc2)CC1 [Example 46, 2-fluoro-5-(8-{[4-(4-isopropylpiperazin-1-yl)phenyl]amino}[1,2,4]triazolo[1,5-a]pyridin-5-yl)benzamide] | < 5.00
> 6.30 | O=c1cc(-c2ccc(Nc3ccc(N4CCNCC4)cc3)c3ncnn23)cc[nH]1 [Example 33, 4-{8-[(4-piperazin-1-ylphenyl)amino][1,2,4]triazolo[1,5-a]pyridin-5-yl}pyridin-2(1H)-one] | 5.30 to 6.00
> 6.30 | CC(C)CCN1CCN(c2ccc(Nc3ccc(-c4ccc(C(N)=O)cc4)n4ncnc34)cc2)CC1 [Example 15, 4-[8-({4-[4-(3-methylbutyl)piperazin-1-yl]phenyl}amino)[1,2,4]triazolo[1,5-a]pyridin-5-yl]benzamide] | 5.30 to 6.00
